Results reported in patent publication US20260184669A1, “LIPID COMPOUND AND COMPOSITION FOR DELIVERY OF ACTIVE SUBSTANCE” (KOREA RESEARCH INSTIUTE OF BIOSCIENCE AND BIOTECHNOLOGY, priority 2022, published 2026).

Tests used:
[1] = Stability of mRNA-LNPs according to storage temperature and duration; format: physicochemical; conditions: for Normalized EE % D-1 / Size (nm) D-1 / PDI D-1: day 1; for Normalized EE % D-7 / PDI D-7 / Size (nm) D-7: day 7; for Normalized EE % D-30 / PDI D-30 / Size (nm) D-30: day 30
Procedure: Stability of fLuc mRNA-LNPs produced using various ionizable lipids according to the method of Example 27, was assessed by storing the LNPs at 4° C. and 25° C. At 1, 7, and 30 days post-manufacture, the size, PDI, and encapsulation efficiency (EE) of each mRNA-LNPs samples were measured using the methods described in Experimental Examples 2 and 3.

[2] = Size, polydispersity index and surface charge of mRNA-LNP (Malvern Zetasizer Nano ZS90); format: physicochemical; conditions: for PDI / size (nm) Number: mRNA-LNP made with the ionizable lipid at its optimal formulation (Table 2); for size (nm) Number: diluted with PBS to 1 μg/mL mRNA; for Zeta (mV): surface charge of mRNA-LNP made with the ionizable lipid at its optimal formulation (Table 2)
Procedure: Each mRNA-LNPs produced in Example 27 was diluted with PBS to a final mRNA concentration of 1 μg/mL. The size, polydispersity index (PDI), and surface charge of the mRNA-LNPs were then measured using a Malvern Zetasizer Nano ZS90 (Malvern Instruments, UK).
For particles intended for systemic administration, such as via blood vessels, the particle size must be less than 200 nm in order to pass through the endothelial capillaries of the liver. In addition, the size distribution is considered uniform only when the PDI is 0.3 or less, which enables consistent and efficient therapeutic effects (Non-patent document 3 [Danaei, M. et al). Pharmaceutics 2018, 10, 57]).

[3] = system: female C57BL/6 mice; assay: Protein expression efficiency of fLuc mRNA-LNPs after intramuscular injection (IVIS whole-body luminescence); format: in vivo; conditions: for Total flux 1 hour / Total flux 3 hours / Total flux 6 hours / Total flux 48 hours / Total flux 72 hours / Total flux: fLuc mRNA-LNP, intramuscular injection, luminescence at injection site, mice; for Total flux 1 hour: 1 hour after administration; for Total flux 3 hours: 3 hours after administration; for Total flux 6 hours: 6 hours after administration; for Total flux 48 hours: 48 hours after administration; for Total flux 72 hours: 72 hours after administration; for Total flux: after administration; for Fold increase in total flux at 3 h, MC3: relative to control LNP formulated with MC3; for Fold increase in total flux at 3 h, MC3 / Fold increase in total flux at 3 h, SM-102: 3 hours after intramuscular injection; for Fold increase in total flux at 3 h, SM-102: relative to control LNP formulated with SM-102
Procedure: fLuc mRNA-LNPs formulated using various ionizable lipids were prepared according to the method described in Example 27 and administered in vivo via intramuscular (I. M.) or intravenous (IV.) injection to compare the resulting protein expression efficiency in vivo. As a control, EGFP mRNA-LNPs formulated with commercially available ionizable lipids MC3 or SM-102 were used. All mRNA-LNPs were administered at equal mRNA doses per body weight across different concentration groups (n≥4).
Specifically, the dose of mRNA-LNPs was adjusted to 0.1-0.5 mg/kg of body weight, and the formulation was administered via I.M. or I.V. injection to female C57BL/6 mice (6-10 weeks old, Orient Bio, Korea) Subsequently, […], whole-body luminescence images were acquired using an in vivo imaging system (IVIS Lumina III, PerkinElmer, Walzam, MA, USA). To assess protein expression levels, 200 μL of D-luciferin (15 mg/mL) was administered via intraperitoneal (I.P.) injection 10 minutes prior to imaging. During image acquisition, the animals were anesthetized by inhalation of 3% isoflurane in 97% medical grade oxygen. In addition, the acquired luminescence images were quantitatively analyzed using imaging software (Living Image Software Version 4.4; PerkinElmer, USA).
After intramuscular injection of the fLuc mRNA-LNPs, the luminescence intensity at the injection site was measured over time.
Furthermore, the luminescence intensity at the injection site 3 hours after intramuscular injection was measured, and the relative protein expression efficiency was compared to that of control LNPs formulated with MC3 or SM-102.

[4] = mRNA encapsulation efficiency (Quant-IT RiboGreen RNA assay); format: physicochemical; conditions: mRNA encapsulation efficiency of mRNA-LNP made with the ionizable lipid; average of two measurements
Procedure: The mRNA encapsulation efficiency (EE, %) of LNPs containing mRNA was measured using the Quant-IT™ RiboGreen® RNA assay kit (Invitrogen, USA).
The diluted samples were added to each well of a 96-well plate. Group A (without Triton X-100) was supplemented with 50 μL of 1×TE buffer, while Group B (with Triton X-100) was supplemented with 50 μL of 1×TE buffer containing 2% Triton-X 100. To release the encapsulated mRNA, the LNPs were treated with Triton-X 100 and incubated at 37° C. for 10 minutes. Subsequently, 100 μL of ribogreen reagent was added to each well. The fluorescence intensities of Group A and Group B were measured using a multi-plate reader (λex 480 nm, λem 520 nm), and mRNA encapsulation efficiency (%) was calculated using Equation 1 below. The encapsulation efficiency for each LNP was determined as the average of two independent measurements.

Compound | Normalized EE % D-1 ([1]; fLuc mRNA-LNP stored at 4° C.) [%] | Size (nm) D-1 ([1]; fLuc mRNA-LNP stored at 4° C.) [nm] | Normalized EE % D-7 ([1]; fLuc mRNA-LNP stored at 4° C.) [%] | PDI D-7 ([1]; fLuc mRNA-LNP stored at 4° C.) | Size (nm) D-7 ([1]; fLuc mRNA-LNP stored at 4° C.) [nm] | Normalized EE % D-30 ([1]; fLuc mRNA-LNP stored at 4° C.) [%] | PDI D-30 ([1]; fLuc mRNA-LNP stored at 4° C.) | Size (nm) D-30 ([1]; fLuc mRNA-LNP stored at 4° C.) [nm] | Normalized EE % D-1 ([1]; fLuc mRNA-LNP stored at 25° C.) [%] | PDI D-1 ([1]; fLuc mRNA-LNP stored at 25° C.) | Size (nm) D-1 ([1]; fLuc mRNA-LNP stored at 25° C.) [nm] | Normalized EE % D-7 ([1]; fLuc mRNA-LNP stored at 25° C.) [%] | PDI D-7 ([1]; fLuc mRNA-LNP stored at 25° C.) | Size (nm) D-7 ([1]; fLuc mRNA-LNP stored at 25° C.) [nm] | Normalized EE % D-30 ([1]; fLuc mRNA-LNP stored at 25° C.) [%] | PDI D-30 ([1]; fLuc mRNA-LNP stored at 25° C.) | Size (nm) D-30 ([1]; fLuc mRNA-LNP stored at 25° C.) [nm] | PDI [2] | size (nm) Number [2] [nm] | Zeta (mV) [2] [mV] | other results
CCCCCCCCCCCOC(=O)CCCCCN(CCCCCCCC(=O)OC(CCCCCCCC)CCCCCCCC)CC(O)CCCCNC(=O)c1cnc(O)n1C (stereo not drawn) [Compound 40, Heptadecan-9-yl 8-((2-hydroxy-6-(2-hydroxy-1-methyl-1H-imidazole-5-carboxamido)hexyl)(6-oxo-6-(undecyloxy)hexyl)amino)octanoate] | 92.3 | 106.8 | 89.0 | 0.106 | 155.6 | 87.5 | 0.044 | 146.2 | 92.3 | 0.154 | 106.8 | 90.9 | 0.112 | 146.8 | 89.3 | 0.091 | 144.8 | 0.154 | 107 | −1.73 | Total flux 1 hour [3]: 7.92E+06; Total flux 3 hours [3]: 1.50E+07; Total flux 6 hours [3]: 6.60E+06; Total flux 48 hours [3]: 1.10E+06; Total flux 72 hours [3]: 8.29E+05; Total flux [3]: 6.46E+05; Fold increase in total flux at 3 h, MC3 [3]: 1.22; Fold increase in total flux at 3 h, SM-102 [3]: 0.13; EE (%) [4]: 92%
CCCCCCCCCCCOC(=O)CCCCCN(CCCCCCCC(=O)OC(CCCCCCCC)CCCCCCCC)CC(O)CCCCNC(=O)c1cn(C)cn1 (stereo not drawn) [Compound 37, Heptadecan-9-yl 8-((2-hydroxy-6-(1-methyl-1H-imidazole-4-carboxamido)hexyl)(6-oxo-6-(undecyloxy)hexyl)amino)octanoate] | 89.5 | 114.5 | 89.9 | 0.155 | 123.7 | 90.0 | 0.280 | 138.7 | 89.5 | 0.154 | 114.5 | 88.0 | 0.087 | 133.6 | 83.8 | 0.126 | 135.7 | 0.154 | 115 | −3.30 | Total flux 1 hour [3]: 7.40E+06; Total flux 3 hours [3]: 8.89E+06; Total flux 6 hours [3]: 5.97E+06; Total flux 48 hours [3]: 2.13E+06; Total flux 72 hours [3]: 1.85E+06; Total flux [3]: 2.32E+06; Fold increase in total flux at 3 h, MC3 [3]: 0.72; Fold increase in total flux at 3 h, SM-102 [3]: 0.08; EE (%) [4]: 89%
CCCCCCCCCCCOC(=O)CCCCCN(CCCCCCCC(=O)OC(CCCCCCCC)CCCCCCCC)CC(O)CCCCNC(=O)c1cccn1C (stereo not drawn) [Compound 18, Heptadecan-9-yl 8-((2-hydroxy-6-(1-methyl-1H-pyrrole-2-carboxamido)hexyl) (6-oxo-6-(undecyloxy)hexyl)amino)octanoate] | 88.0 | 124.6 | 85.3 | 0.064 | 121.4 | 87.6 | 0.106 | 126.6 | 88.0 | 0.145 | 124.6 | 85.6 | 0.016 | 126.1 | 87.0 | 0.125 | 127.5 | 0.145 | 125 | −1.04 | Total flux 1 hour [3]: 1.63E+06; Total flux 3 hours [3]: 7.75E+06; Total flux 6 hours [3]: 1.56E+07; Total flux 48 hours [3]: 1.54E+05; Total flux 72 hours [3]: 1.96E+05; Total flux [3]: 1.70E+06; Fold increase in total flux at 3 h, MC3 [3]: 0.63; Fold increase in total flux at 3 h, SM-102 [3]: 0.07; EE (%) [4]: 88%
